From patent US12486259B2, “FXR agonist having pyrazine structure, and preparation method and use” (JIANGSU TASLY DIYI PHARMACEUTICAL CO., LTD., priority 2020, dated 2025)

Tests used:
[1] = tested on: C57/BL6 mice fed MCD diet; experiment: Pharmacodynamic test in methionine-choline deficient diet (MCD) model of non-alcoholic fatty liver disease; assay type: in vivo; details: for Weight, 0 week / Food intake, 1 week / Weight, 1 week / Food intake, 2 weeks / Weight, 2 weeks / Food intake, 3 weeks / Weight, 3 weeks / Food intake, 4 weeks / Weight, 4 week / liver weight / liver/body weight / ALT, 3 weeks / AST, 3 weeks / ALT, 4 weeks / AST, 4 weeks / HDL (blood lipid) / LDL (blood lipid) / TC (blood lipid) / TG (blood lipid) / HE score / Sirius red staining area / liver TC / liver TG: MCD mice, obeticholic acid 40 mpk; for Weight, 0 week / Weight, 1 week / Weight, 2 weeks / Weight, 3 weeks / Weight, 4 week: TM compounds 30 mpk, once daily by gavage; for Food intake, 1 week / Food intake, 2 weeks / Food intake, 3 weeks / Food intake, 4 weeks / liver weight / liver/body weight / ALT, 3 weeks / AST, 3 weeks / ALT, 4 weeks / AST, 4 weeks / HDL (blood lipid) / LDL (blood lipid) / TC (blood lipid) / TG (blood lipid) / HE score / Sirius red staining area / liver TC / liver TG: TM 30 mpk; for Food intake, 1 week / Food intake, 2 weeks / Food intake, 3 weeks / Food intake, 4 weeks / ALT, 3 weeks / AST, 3 weeks / ALT, 4 weeks / AST, 4 weeks: gavage; for Food intake, 4 weeks / Weight, 4 week / ALT, 4 weeks / AST, 4 weeks / HE score / Sirius red staining area: 4 weeks; for liver weight / liver/body weight / HDL (blood lipid) / LDL (blood lipid) / TC (blood lipid) / TG (blood lipid) / liver TC / liver TG: after 4 weeks; for ALT, 3 weeks / AST, 3 weeks / ALT, 4 weeks / AST, 4 weeks / HDL (blood lipid) / LDL (blood lipid) / TC (blood lipid) / TG (blood lipid): blood; for HE score: liver pathology score (Table 12 criteria); for Sirius red staining area / liver TC / liver TG: liver; for blood lipid levels (in words) / liver triglyceride and cholesterol content (in words) / liver weight and liver/body weight (in words): after 4 weeks of MCD and compounds treatment; for ALT and AST compared to the model group (in words): three weeks after MCD and compounds treatment
Experimental: Animal strain: C57/BL6, Animal Grade: SPF Grade, Gender: male, Animal Age: 8 weeks old, Animals Received Date: 2018 Sep. 28, Animal Source: Shanghai Lingchang Biotechnology Co. Ltd., Animal Certificate No: SCXK (Shanghai)2013-0018 2013001836799, Mouse feeding Environment: temperature 20-26° C., humidity 40-70%, 12 hour day and night cycle.
5% Solutol HS15/Normal saline: after Solutol HS15 (polyethylene glycol 15 hydroxystearate solubilizer) is dissolved in a water bath at 37° C., 5 ml of it is dissolved in 100 ml of normal saline, thoroughly stirred for later use.
Obeticholic acid/5% Solutol HS15/Normal saline: 0.15 ml Solutol HS15 is added to accurately weighed 12 mg obeticholic acid to fully dissolve it, and 2.85 ml normal saline is added, vigorously mixed and dissolved by the ultrasound. • TM-01 Group/5% Solutol HS15/Normal saline: 2.5 ml of 6 mg/ml TM-01 suspension is taken, 2.5 ml of 5% Solutol HS15/normal saline is added, and the mixture is mixed well. • TM-02 Group/5% Solutol HS15/Normal saline: 2.5 ml of 6 mg/ml TM-02 suspension is taken, 2.5 ml of 5% Solutol HS15/normal saline is added, and the mixture is mixed well. • TM-06 Group/5% Solutol HS15/Normal saline: 2.5 ml of 6 mg/ml TM-06 suspension is taken, 2.5 ml of 5% Solutol HS15/Normal saline is added, and the mixture is mixed well. • TM-09 Group/5% Solutol HS15/Normal saline: 2.5 ml of 6 mg/ml TM-09 suspension is taken, 2.5 ml of 5% Solutol HS15/Normal saline is added, and the mixture is mixed well.
Menstruum and test compounds are administered by gavage at a dose volume of 10 ml/kg;
After reaching the animal house, 70 8-week-old C57/BL6 mice are fed adaptively and randomly divided into 7 groups according to body weight after the average body weight reaches 23 g. They are given the model feed. The first group receives the control diet MCS and the remaining groups receive the MCD diet, while each group of mice receives compound treatment as follows: • Group 1. Control Group: MCS, menstruum, administered once daily by gavage; • Group 2. Model Group: MCD, menstruum, administered once daily by gavage; • Group 3. Obeticholic acid group: MCD, 40 mpk obeticholic acid, administered once daily by gavage; • Group 4. TM-01 Group: MCD, 30 mpk TM-01, administered once daily by gavage; • Group 5. TM-02 Group: MCD, 30 mpk TM-02, administered once daily by gavage; • Group 6. TM-06 Group: MCD, 30 mpk TM-06, administered once daily by gavage; • Group 7. TM-09 Group: MCD, 30 mpk TM-09, administered once daily by gavage; 2.4 Experimental Methods
Body weight and food intake are measured weekly during the experiment. Twenty-one days after administration, tail tips are bled with microcapillaries for AST, ALT measurements. Twenty-eight days after administration, mice are terminated, hearts are bled, and liver tissues are collected and weighed. One portion is snap frozen with liquid nitrogen for subsequent analysis and the other portion are fixed for pathological analysis.
Mouse blood is centrifuged at 5000 rpm for 10 minutes and supernatants are collected for determination of TG (triglycerides), TC (total cholesterol), HDL (high density lipoprotein), LDL (low density lipoprotein), AST (aspartate aminotransferase) and ALT (alanine aminotransferase).
AST and ALT after administration for three and four weeks are determined according to the instructions of kit. The blood lipid index 4 weeks after administration is sent to Adicon Medical Laboratory Co. Ltd. for detection.
The livers are removed from −80° C., homogenized in PBS (phosphate buffered saline), extracted with chloroform methanol organic phase, and subjected to TC and TG assays using the kit, normalized for protein content.
Four weeks after administration, the mice are anesthetized. The heart is bled, the liver is isolated and weighed. The right lobe is snapfrozen with liquid nitrogen and stored at −80° C. for liver lipid analysis. The left lobe is isolated and fixed in 10% formalin for subsequent HE and Sirius Red staining. […]

in vitro = details: human; for efflux ratio: Caco-2; for Papp B→A: Caco-2, Papp B-A; for recovery: Caco-2, Recovery rate A-B
Experimental: The bi-directional transport of target compounds from apical side (AP) to basolateral side (BL) and from BL side to AP side is studied by using human colon adenocarcinoma cell line Caco-2 monolayer model. The transport parameters, apparent permeability coefficient (Papp) and efflux ratio are calculated by quantitative analysis with high performance liquid chromatography (HPLC).

[2] = Caco-2, Papp, A-to-B values (highly permeable substrates)

| Compound | Weight, 0 week [1] | Food intake, 1 week [1] | Weight, 1 week [1] | Food intake, 2 weeks [1] | Weight, 2 weeks [1] | Food intake, 3 weeks [1] | Weight, 3 weeks [1] | Food intake, 4 weeks [1] | Weight, 4 week [1] | liver weight [1] | liver/body weight [1] | ALT, 3 weeks [1] | AST, 3 weeks [1] | ALT, 4 weeks [1] | AST, 4 weeks [1] | HDL (blood lipid) [1] | LDL (blood lipid) [1] | TC (blood lipid) [1] | TG (blood lipid) [1] | HE score [1] | also measured |
| --- | --- | --- | --- | --- | --- | --- | --- | --- | --- | --- | --- | --- | --- | --- | --- | --- | --- | --- | --- | --- | --- |
| CC(C)c1onc(-c2c(Cl)cccc2Cl)c1COc1cnc(C2(O)CC(c3cccc(C(=O)O)c3)C2)cn1 (centres unmarked) [TM-06, 3-(3-(5-(5-isopropyl-3-(2,6-dichlorophenyl)isoxazole-4-ylmethoxy)-2-pyrazine)-1-hydroxycyclobutane) benzoic acid] | 23.75 ± 0.27 g | 2.356 ± 0.213 g | 21.36 ± 0.27 g | 2.664 ± 0.194 g | 18.29 ± 0.28 g | 2.093 ± 0.250 g | 16.41 ± 0.25 g | 1.932 ± 0.137 g | 15.70 ± 0.22 g | 0.67 ± 0.03 g | 4.23 ± 0.13 % | 48.97 ± 26.07 U/L | 52.14 ± 18.73 U/L | 49.13 ± 33.04 U/L | 45.23 ± 13.21 U/L | 0.42 ± 0.06 mmol/L | 3.01 ± 0.09 mmol/L | 0.97 ± 0.16 mmol/L | 0.59 ± 0.02 mmol/L | 1.6 | Sirius red staining area [1]: 0.421 ± 0.081%; liver TC [1]: 38.2 ± 35 µmol/g protein; liver TG [1]: 304 ± 46.5 µmol/g protein; blood lipid levels (in words) [1]: different reductions in blood lipids; liver triglyceride and cholesterol content (in words) [1]: different lowering effects; liver weight and liver/body weight (in words) [1]: significantly increases mouse liver weight and liver/body weight; ALT and AST compared to the model group (in words) [1]: significantly reduced; efflux ratio (in vitro): 5.12; Papp A→B (in vitro; Caco-2, Papp A-B): 7.54 ×10⁻⁶ cm/s; Papp A→B (in vitro; Caco-2, Papp A-B, Average): 7.17 ×10⁻⁶ cm/s; Papp A→B (in vitro; Caco-2, Papp A-B, Sample-01): 7.86 ×10⁻⁶ cm/s; Papp A→B (in vitro; Caco-2, Papp A-B, Sample-02): 6.48 ×10⁻⁶ cm/s; Papp B→A (in vitro): 38.6 ×10⁻⁶ cm/s; Papp A→B (in vitro; [2]): > 2.5 ×10⁻⁶ cm/s; recovery (in vitro; Average): 74.2%; recovery (in vitro; Sample-01): 81%; recovery (in vitro; Sample-02): 67.3% |
| Cc1cc(C(=O)O)cc(C2CC(O)(c3cnc(OCc4c(-c5c(Cl)cccc5Cl)noc4C(C)C)cn3)C2)c1 (centres unmarked) [TM-09, 3-(3-(5-((3-(2,6-dichlorophenyl)-5-isopropylisoxazol-4-yl)methoxy)pyrazine-2-yl)-3-hydroxycyclobutyl)-5-methyl benzoic acid] | 23.60 ± 0.29 g | 2.364 ± 0.186 g | 21.26 ± 0.34 g | 2.707 ± 0.187 g | 19.29 ± 0.39 g | 2.284 ± 0.342 g | 17.18 ± 0.31 g | 2.109 ± 0.661 g | 15.90 ± 0.31 g | 0.74 ± 0.04 g | 4.98 ± 0.25 % | 40.27 ± 21.48 U/L | 45.04 ± 12.08 U/L | 14.30 ± 4.19 U/L | 38.40 ± 4.19 U/L | 0.56 ± 0.02 mmol/L | 2.52 ± 0.07 mmol/L | 0.86 ± 0.09 mmol/L | 0.54 ± 0.04 mmol/L | 1.1 | Sirius red staining area [1]: 0.392 ± 0.057 %; liver TC [1]: 37.7 ± 3.65 µmol/g protein; liver TG [1]: 232 ± 18.4 µmol/g protein; blood lipid levels (in words) [1]: different reductions in blood lipids; liver triglyceride and cholesterol content (in words) [1]: significant lowering effect on liver triglyceride and cholesterol levels; liver weight and liver/body weight (in words) [1]: significantly increases mouse liver weight and liver/body weight; ALT and AST compared to the model group (in words) [1]: significantly reduced; efflux ratio (in vitro): 4.22; Papp A→B (in vitro; Caco-2, Papp A-B): 6.91 ×10⁻⁶ cm/s; Papp A→B (in vitro; Caco-2, Papp A-B, Average): 8.75 ×10⁻⁶ cm/s; Papp A→B (in vitro; Caco-2, Papp A-B, Sample-01): 8.46 ×10⁻⁶ cm/s; Papp A→B (in vitro; Caco-2, Papp A-B, Sample-02): 9.05 ×10⁻⁶ cm/s; Papp B→A (in vitro): 29.2 ×10⁻⁶ cm/s; Papp A→B (in vitro; [2]): > 2.5 ×10⁻⁶ cm/s; recovery (in vitro; Average): 81.4%; recovery (in vitro; Sample-01): 80.9%; recovery (in vitro; Sample-02): 82% |
